# Source: patent US10300065B2, “Method of treating or prevention of atherothrombotic events in patients with history of myocardial infarction” (ASTRAZENECA AB, priority 2015, dated 2019)
# Where two headings read alike, the source gives them in different places.
# System: patients with a history of myocardial infarction
# [1] = 60 mg bid (N = 6958), % of patients
# [2] = 60 mg bid (N = 6958), listed as ticagrelor
# [3] = 60 mg bid, intention-to-treat population
# Source text: Any erroneously treated patients (e.g., randomized to ticagrelor but actually given placebo) were to be accounted for in the actual treatment group.
# The primary efficacy endpoint was the composite of cardiovascular death, myocardial infarction, or stroke. Secondary endpoints were cardiovascular death and all-cause mortality. The analysis of secondary endpoints proceeded in a hierarchical fashion, starting with cardiovascular death and then death from any cause. Additional endpoints listed below were evaluated on an exploratory basis. Exploratory efficacy endpoints included substituting coronary heart disease death for cardiovascular death, and the additional end points of urgent coronary revascularization, unstable angina, and transient ischemic attack. The primary safety endpoint was TIMI major bleeding. Other safety endpoints included intracranial hemorrhage (ICH) and fatal bleeding. […] A central clinical events committee whose members were unaware of the treatment assignments adjudicated all efficacy endpoints and bleeding episodes.
# Safety analyses included all randomized patients who received at least one dose of study drug and for whom post-dose data were available. Patients were censored at the first of the pre-specified Common Study End Date, withdrawal of consent, or the last clinical event assessment. Safety was analyzed as on-treatment including all events occurring after first dose and within 7 days after the last dose of study drug. […] Event rates are expressed as Kaplan-Meier estimates of cumulative incidence.
compound,measurement,setting,value
"CCCSc1nc(N[C@@H]2C[C@H]2c2ccc(F)c(F)c2)c2nnn([C@@H]3C[C@H](OCCO)[C@@H](O)[C@H]3O)c2n1 [Ticagrelor, (1S,2S,3R,5S)-3-[7-{[(1R,2S)-2-(3,4-difluorophenyl)cyclopropyl]amino}-5-(propylthio)-3H-[1,2,3]-triazolo[4,5-d]pyrimidin-3-yl]-5-(2-hydroxyethoxy)cyclopentane-1,2-diol]","Dyspnea, 3-year event rate",60 mg bid,15.8%
same,Fatal bleeding: ARI (%),60 mg bid,−0.01%
same,Hypotension,60 mg bid,0.66 events/100 pt years
same,ICH: ARI (%),60 mg bid,0.14%
same,ICH: NNH,60 mg bid,714
same,TIMI major bleeding: ARI (%),60 mg bid,1.24%
same,TIMI major bleeding: NNH,60 mg bid,81
same,frequency of death (including bleeding),60 mg bid,4.2%
same,"frequency of death, bleeding events excluded",60 mg bid,3.9%
same,median duration of resolved dyspnea adverse events,60 mg bid,31 days
same,patients with serum creatinine concentration increased by >50%,60 mg bid,approximately 4%
same,"syncope, patients reporting",60 mg bid,1.2%
same,Adverse event leading to death: (%),60 mg bid (N = 6958),(2.1) %
same,Adverse event leading to death: n,60 mg bid (N = 6958),149
same,Adverse event leading to discontinuation of study drug: (%),60 mg bid (N = 6958),(16.1) %
same,Adverse event leading to discontinuation of study drug: n,60 mg bid (N = 6958),1117
same,Any adverse event: (%),60 mg bid (N = 6958),(75.7) %
same,Any adverse event: n,60 mg bid (N = 6958),5268
same,Any serious adverse event: (%),60 mg bid (N = 6958),(21.5) %
same,Any serious adverse event: n,60 mg bid (N = 6958),1499
same,Bleeding leading to study drug discontinuation: 3-year Kaplan-Meier estimate,60 mg bid (N = 6958),(6.2) %
same,Bleeding leading to study drug discontinuation: n,60 mg bid (N = 6958),355
same,Bleeding requiring transfusion: 3-year Kaplan-Meier estimate,60 mg bid (N = 6958),(2.10) %
same,Bleeding requiring transfusion: n,60 mg bid (N = 6958),105
same,Bradyarrhythmia adverse event: (%),60 mg bid (N = 6958),(1.7) %
same,Bradyarrhythmia adverse event: n,60 mg bid (N = 6958),121
same,Dyspnea AE: (%),60 mg bid (N = 6958),(14.17) %
same,Dyspnea AE: n,60 mg bid (N = 6958),986
same,Dyspnea SAE: (%),60 mg bid (N = 6958),(0.3) %
same,Dyspnea SAE: n,60 mg bid (N = 6958),22
same,Dyspnea leading to study drug discontinuation: (%),60 mg bid (N = 6958),(4.3) %
same,Dyspnea leading to study drug discontinuation: n,60 mg bid (N = 6958),296
same,Fatal Bleeding: 3-year Kaplan-Meier estimate,60 mg bid (N = 6958),(0.25) %
same,Fatal Bleeding: n,60 mg bid (N = 6958),11
same,Fatal bleeding or non-fatal intracranial hemorrhage: 3-year Kaplan-Meier estimate,60 mg bid (N = 6958),(0.63) %
same,Fatal bleeding or non-fatal intracranial hemorrhage: n,60 mg bid (N = 6958),32
same,Fatal bleeding: (%) patients with event,60 mg bid (N = 6958),(0.2) %
same,Fatal bleeding: Events/100 pt yrs,60 mg bid (N = 6958),0.08 Events/100 pt yrs
same,Gout adverse event: (%),60 mg bid (N = 6958),(1.4) %
same,Gout adverse event: n,60 mg bid (N = 6958),97
same,Intracranial Hemorrhage: 3-year Kaplan-Meier estimate,60 mg bid (N = 6958),(0.61) %
same,Intracranial Hemorrhage: n,60 mg bid (N = 6958),28
same,Intracranial hemorrhage: (%) patients with event,60 mg bid (N = 6958),(0.4) %
same,Intracranial hemorrhage: Events/100 pt yrs,60 mg bid (N = 6958),0.19 Events/100 pt yrs
same,Renal adverse event: (%),60 mg bid (N = 6958),(2.5) %
same,Renal adverse event: n,60 mg bid (N = 6958),173
same,Serious adverse event leading to discontinuation of study drug: (%),60 mg bid (N = 6958),(3.7) %
same,Serious adverse event leading to discontinuation of study drug: n,60 mg bid (N = 6958),255
same,TIMI Major bleeding: 3-year Kaplan-Meier estimate,60 mg bid (N = 6958),(2.30) %
same,TIMI Major bleeding: n,60 mg bid (N = 6958),115
same,TIMI Major or Minor: (%) patients with event,60 mg bid (N = 6958),(2.4) %
same,TIMI Major or Minor: Events/100 pt yrs,60 mg bid (N = 6958),1.15 Events/100 pt yrs
same,TIMI Major or Minor: n patients with event,60 mg bid (N = 6958),168
same,TIMI Major: (%) patients with event,60 mg bid (N = 6958),(1.7) %
same,TIMI Major: Events/100 pt yrs,60 mg bid (N = 6958),0.78 Events/100 pt yrs
same,TIMI Minor bleeding: 3-year Kaplan-Meier estimate,60 mg bid (N = 6958),(1.18) %
same,TIMI Minor bleeding: n,60 mg bid (N = 6958),55
same,Non-hemorrhagic adverse reaction: Diarrhea,[1],3.3%
same,Non-hemorrhagic adverse reaction: Dizziness,[1],4.5%
same,Non-hemorrhagic adverse reaction: Dyspnea,[1],14.2%
same,Bleeding leading to study drug discontinuation: 3-year Kaplan-Meier estimate,[2],6.2%
same,Bleeding requiring transfusion: 3-year Kaplan-Meier estimate,[2],2.1%
same,Dyspnea leading to study drug discontinuation: (%),[2],4.3%
same,Fatal Bleeding: 3-year Kaplan-Meier estimate,[2],0.3%
same,Intracranial Hemorrhage: 3-year Kaplan-Meier estimate,[2],0.6%
same,TIMI Major bleeding: 3-year Kaplan-Meier estimate,[2],2.30%
same,Bleeding leading to study drug discontinuation: HR,60 mg bid vs Placebo,4.31
same,Bleeding requiring transfusion: HR,60 mg bid vs Placebo,3.08
same,Dyspnea AE: HR,60 mg bid vs Placebo,2.82
same,Dyspnea SAE: HR,60 mg bid vs Placebo,2.91
same,Dyspnea leading to study drug discontinuation: HR,60 mg bid vs Placebo,6.35
same,Fatal Bleeding: HR,60 mg bid vs Placebo,1.00
same,Fatal bleeding or non-fatal intracranial hemorrhage: HR,60 mg bid vs Placebo,1.22
same,Intracranial Hemorrhage: HR,60 mg bid vs Placebo,1.33
same,TIMI Major bleeding: HR,60 mg bid vs Placebo,2.32
same,TIMI Minor bleeding: HR,60 mg bid vs Placebo,3.31
same,"TIMI major bleeding events per year if 10,000 patients were started on treatment versus placebo","60 mg bid, intention-to-treat data",31
same,Death: (%),[3],(4.1) %
same,Death: n,[3],289
